Like-named read-outs stand apart in the source and are kept apart here.
Key:
[1] = test system: MCF-7 breast carcinoma; assay: MTT cytotoxicity assay, MCF-7; conditions: for IC50: Homo sapiens, MCF7, […]
[2] = test system: SKMEL-5 melanoma; assay: MTT cytotoxicity assay, SKMEL-5; conditions: for IC50: Homo sapiens, SK-MEL-5, […], read-out: Cytotoxicity ED50, SKMEL-5
[3] = test system: MLM melanoma; assay: MTT cytotoxicity assay, MLM
[4] = test system: HT-29 colon adenocarcinoma; assay: MTT cytotoxicity assay, HT-29; conditions: for IC50: Homo sapiens, HT-29, […]
[5] = test system: A-549 lung carcinoma; assay: MTT cytotoxicity assay, A-549; conditions: for IC50: Homo sapiens, A549, […]
[6] = test system: five cancer cell cultures; assay: MTT cytotoxicity assay, five cancer cell cultures taken together; conditions: for cytotoxicity (in words): five cancer cell lines
[7] = test system: tubulin; assay: Inhibition of tubulin polymerization (turbidimetry); type: biochemical, bovine
[8] = read-out: Cytotoxicity ED50, MCF-7
[9] = read-out: Cytotoxicity ED50, MLM
[10] = read-out: Cytotoxicity ED50, HT-29
[11] = read-out: Cytotoxicity ED50, A-549
[12] = read-out: cytotoxicity ED50, five cancer cell lines
[13] = second series (Tables V-VII, IX), read-out: Inhibition of Tubulin Polymerization IC50 (±S.D.)

SMILES	IC50 [1, 8] [µM]	IC50 [2] [µM]	IC50 [3, 9] [µM]	IC50 [4, 10] [µM]	IC50 [5, 11] [µM]	IC50 [7, 13] [µM]	further results
COc1cc(/C=C\c2ccncc2)cc(OC)c1OC [5i, (Z)-1-(4-Pyridyl)-2-(3,4,5-trimethoxyphenyl)ethene]	17	14.4	> 25	12.9	14.2		IC50 [6, 12]: > 10 µM
COc1cc(/C=C\c2cccnc2)cc(OC)c1OC [5j, (Z)-1-(3-Pyridyl)-2-(3,4,5-trimethoxyphenyl)ethene]	14.7	6	> 25	9.8	13.7		IC50 [6, 12]: > 10 µM
COc1cc(/C=C\c2ccccn2)cc(OC)c1OC [5k, (Z)-1-(2-Pyridyl)-2-(3,4,5-trimethoxyphenyl)ethene]	> 25	> 25	> 25	> 25	> 25		IC50 [6, 12]: > 10 µM
COc1cc(/C=C\c2ccc([N+](=O)[O-])cc2)cc(OC)c1OC [5l, (Z)-1-(4-Nitrophenyl)-2-(3,4,5-trimethoxyphenyl)ethene]	> 25	> 25	> 25	> 25	> 25		cytotoxicity (in words) [6]: decreased the activity drastically
COc1cc(/C=C\c2ccc(O[Si](C)(C)C(C)(C)C)cc2)cc(OC)c1OC [5m, (Z)-1-[(4-t-Butyldimethylsilyloxy)phenyl]-2-(3,4,5-trimethoxyphenyl)ethene]	7.29	7.59	17.2	10.6	11		cytotoxicity (in words) [6]: decreased the activity drastically
COc1ccc(/C=C\c2ccc(OC)c(OC)c2)cc1 [15h, (Z)-(4-Methoxyphenyl)-2-(3,4-dimethoxyphenyl)ethene]	> 25	> 25	> 25	> 25	> 25		IC50 [6, 12]: > 25 µM
CCOc1ccc(/C=C/c2cc(OC)c(OC)c(OC)c2)cc1 [16a]	0.75	1.17	0.22	1.49	0.17		IC50 ([6]; read-out: cytotoxicity ED50): ~0.1 µM
COc1ccc(/C=C/c2cc(OC)c(OC)c(OC)c2)cc1 [compound 6a, (E)-1-(4-Methoxyphenyl)-2-(3,4,5-trimethoxyphenyl)ethene]		0.81					IC50 ([1]; read-out: Cytotoxicity ED50, MCF-7, MCF-7, MTT, six days): 1.05 µM; IC50 ([7]; first series (Table VIII and text), 37° C., 20 min, read-out: Tubulin polymerization IC50 (±S.D.)): > 50 µM; IC50 ([3]; read-out: Cytotoxicity ED50, MLM, MLM, MTT, six days): 2.07 µM; IC50 ([4]; read-out: Cytotoxicity ED50, HT-29, HT-29, MTT, six days): 1.82 µM; IC50 ([5]; read-out: Cytotoxicity ED50, A-549, A-549, MTT, six days): 1.18 µM
COc1cc(CCc2cc(OC)c(OC)c(OC)c2)cc(OC)c1 [compound 8s]	> 25	> 25	> 25	> 25	> 25		inhibition of tubulin polymerization (in words) [7]: lower activity
COc1cc(CCc2ccc(N)cc2)cc(OC)c1OC [compound 8z, 1-(4-Aminophenyl)-2-(3,4,5-trimethoxyphenyl)ethane]	11.9	12.7	> 25	24.6	12.2		inhibition of tubulin polymerization (in words) [7]: lower activity
CCOc1ccc(/C=C\c2cc(OC)c(OC)c(OC)c2)cc1 [compound 15a, (Z)-1-(4-Ethoxyphenyl)-2-(3,4,5-trimethoxyphenyl)ethene]	0.096	0.0025	0.029	0.0018	0.0016	2.7	
CCCOc1ccc(/C=C\c2cc(OC)c(OC)c(OC)c2)cc1 [compound 15b, (Z)-1-(4-n-Propoxyphenyl)-2-(3,4,5-trimethoxyphenyl)-thene]	0.66	0.014	0.065	0.028	0.039	6	
COc1cc(/C=C\c2ccc(SC)cc2)cc(OC)c1OC [compound 15c, (Z)-1-(4-Methylthiophenyl)-2-(3,4,5-trimethoxyphenyl)ethene]	0.0054	4e-06	0.0033	1.8e-05	0.00019	6.2	cytotoxicity relative to 5a (in words) ([1]; MCF cell culture): about one order of magnitude less cytotoxic than 5a; cytotoxicity relative to 5a (in words) ([2]; SKMEL-5 cells): two orders of magnitude more potent; cytotoxicity relative to parent (in words) ([3]; MLM): as cytotoxic as the parent compound; cytotoxicity relative to 5a (in words) ([4]; HT-29 cells): about one order of magnitude more potent; cytotoxicity relative to parent (in words) ([5]; A-549): as cytotoxic as the parent compound
COc1cc(/C=C\c2ccc(C(C)(C)C)cc2)cc(OC)c1OC [compound 15g, (Z)-1-(4-t-Butylphenyl)-2-(3,4,5-trimethoxyphenyl)ethene]	1.57	0.21	4.32	0.88	1.02	> 40	
COc1ccc(/C=C(/C(=O)O)c2cc(OC)c(OC)c(OC)c2)cc1 [compound 23a, (E)-3-(4-Methoxyphenyl)-2-(3,4,5-trimethoxyphenyl)-prop-2-enoic acid]	12.8	9.1	> 25	8.4	13.9	> 40	
COc1cccc(/C=C(/C(=O)O)c2cc(OC)c(OC)c(OC)c2)c1 [compound 23b, (E)-3-(3-Methoxyphenyl)-2-(3,4,5-trimethoxyphenyl)-prop-2-enoic acid]	> 25	0.05	> 25	0.12	0.025	> 40	
COC(=O)/C(=C/c1cccc(OC)c1)c1cc(OC)c(OC)c(OC)c1 [compound 24b, (E)-Methyl 3-(3-methoxyphenyl)-2-(3,4,5-trimethoxy-phenyl)-prop-2-enoate]	1.3	1.5	15.5	0.7	1.3	> 40	
COc1ccc(Cc2cc(OC)c(OC)c(OC)c2)cc1 [compound 29, 4-Methoxyphenyl-(3,4,5-trimethoxyphenyl)methane]	0.019	0.012	0.13	0.013	0.15	15	
COc1ccc(C(Cc2cc(OC)c(OC)c(OC)c2)C(=O)O)cc1 (centres unmarked) [compound 33, 2-(4-Methoxyphenyl)-3-(3,4,5-trimethoxyphenyl)propionic acid]	> 25	7.4	> 25	9.4	14.3	> 40	
COc1ccc(C2Cc3cc(OC)c(OC)c(OC)c3C2=O)cc1 (centres unmarked) [compound 34, 2-(4-Methoxyphenyl)-4,5,6-trimethoxyindan-3-one]	> 25	> 25	> 25	> 25	> 25	> 40	
COc1ccc(C2Cc3cc(OC)c(OC)c(OC)c3C2)cc1 (centres unmarked) [compound 35, 2-(4-Methoxyphenyl)-4,5,6-trimethoxyindane]	> 25	19.5	> 25	12.8	> 25	> 40	
COc1ccc(Cc2c3cc(OC)c(OC)c(OC)c3cc[n+]2C)cc1 [compound 37, 1-(4'-Methoxybenzyl)-5,6,7-trimethoxyisoquinoline Methiodide]	> 25	2.1	> 25	20.5	19.5	> 40	
COc1ccc(CC2NCCc3c2cc(OC)c(OC)c3OC)cc1 (centres unmarked) [compound 38, 1-(4'-Methoxybenzyl)-5,6,7-trimethoxy-1,2,3,4-tetrahydroisoquinoline]	> 25	> 25	> 25	20.2	19.3	> 40	
COc1ccc(C(=O)c2nccc3c(OC)c(OC)c(OC)cc23)cc1 [compound 39, 1-(4'-Methoxybenzoyl)-5,6,7-trimethoxyisoquinoline]	> 25	> 25	> 25	> 25	> 25	> 40	
COc1ccc(C(=O)c2c3cc(OC)c(OC)c(OC)c3cc[n+]2C)cc1 [compound 40, 1-(4'-Methoxybenzoyl)-5,6,7-trimethoxyisoquinoline Methiodide]	> 25	> 25	> 25	> 25	> 25	> 40	
COc1ccc(CC2c3cc(OC)c(OC)c(OC)c3CCN2C)cc1 (centres unmarked) [compound 41, 1-(4'-Methoxybenzyl)-5,6,7-trimethoxy-2-methyl-1,2,3,4-tetrahydroisoquinoline]	22.7	8.8	> 25	9.7	11.4	> 40	
COc1ccc2c(c1)CN1CCc3c(cc(OC)c(OC)c3OC)C1C2 (centres unmarked) [compound 48, 5,8,13,13a-Tetrahedro-2,3,4,10-tetramethoxy-6H-dibenzo-(a,g)quinolizine]	> 25	> 25	> 25	> 25	> 25	> 40	

Reference: patent US5430062A, “Stilbene derivatives as anticancer agents” (priority 1993, dated 1995)
